Literature values, collected in publication PMC8231113, “Protein Secondary Structure Affects Glycan Clustering in Native Mass Spectrometry” (Life, 2021).

How the values were obtained:
[1] = target: wildtype GII.4 Saga P dimer; conditions: read-out: KD, result from NMR; cited from earlier work
[2] = test system: deamidated GII.4 Saga P dimer; set-up: method as in PMID 30899001, PMID 30071731; conditions: NMR and HDX MS; cited from earlier work
[3] = test system: hNoV P dimers; set-up: method as in PMID 22170811, PMID 30899001; conditions: cited from earlier work

SMILES | Kd [1] [mM] | reduction of glycan binding affinity of deamidated P dimer compared to the wildtype [2] | binding to hNoV [3]
C[C@@H]1O[C@@H](O[C@H]2C(O)O[C@H](CO)[C@H](O)[C@@H]2O[C@H]2O[C@H](CO)[C@H](O)[C@H](O)[C@H]2O)[C@@H](O)[C@H](O)[C@@H]1O (some centres unmarked) [B trisaccharide] | 6.7 | roughly by an order of magnitude | 
O=C[C@@H](O)[C@H](O)[C@H](O)[C@@H](O)CO [L-galactose] |  |  | known not to bind
C[C@H](O)[C@@H](O)[C@@H](O)[C@H](O)C=O [fucose] | 22 | roughly by an order of magnitude | 
